Measurements: US10071983B2, “Activatable fluorogenic compounds and uses thereof as near infrared probes” (Ramot at Tel-Aviv University Ltd., priority 2011, dated 2018)

Legend:
[1] = Fluorescence quantum yield calculation against a reference dye; type: physicochemical; settings: PBS 7.4
Experimental: Cresyl-violet-perchlorate (as presented hereinbelow) was chosen as a reference compound for the determination of QCy7 quantum yield.
(§1) FIG. 5 presents the data obtained for fluorescence intensity vs. wavelength of standard sample (Cresyl violet; FIG. 5A), and test sample (QCy7; FIG. 5B), at the indicated concentrations. The measurements were performed in a 1 cm cuvette using Fluoromax-3 fluorometer; at an excitation wavelength of 560 nm. Cresyl violet was dissolved in methanol and Compound 1 in PBS 7.4 (just generating QCy7).
Conversion to the absolute quantum yield is achieved through the following equation: ΦX=ΦST(GradX/GradST)(η^2X/η^2ST) where the subscripts ST and X denote standard and test respectively, Φ is the fluorescence quantum yield, Grad the gradient from the plot of integrated fluorescence intensity vs. absorbance (see, FIG. 6), and η the refractive index of the solvents. ΦCresyl-violet=0.55 [Stefan et al. ([…]) J. Phys. Chem. 86, 1738-1742].
QCy7 was chosen as a reference compound for the determination of Sulfo-QCy7 quantum yield.
(§2) FIG. 8 presents the data obtained for fluorescence intensity vs. wavelength of standard sample (QCy7; FIG. 8A), and test sample (Sulfo-QCy7, generated from Compound 9; FIG. 8B), at the indicated concentrations. The measurements were performed at a 96-wells plate reader using Fluoromax-3 fluorometer; at an excitation wavelength of 560 nm. Both samples were dissolved in PBS 7.4.
The absolute quantum yield was calculated as described hereinabove and found to be: […]

[2] = NIR fluorescence emission spectrum of dye compounds; type: physicochemical; settings: for λmax: Table 1, λmax (fluorescence emission)
Excerpt: (§3) Compound 1 (which generates the dye compound QCy7 deprotonation) was obtained as an orange crystalline powder. FIGS. 4A and 4B present the UV-Vis spectrum of Compound 1 (FIG. 4A), compared to that of the acetate Compound 3 (FIG. 4B). […] The obtained large stokes shift between the excitation and the emission wavelengths of about 150 nm is a desirable feature for fluorescence probes, which assists in increasing the signal-to-noise ratio.
as §1, §2

[3] = NIR fluorescence assay of probe Compound 4 with hydrogen peroxide
Experimental: In order to evaluate the NIR fluorescence obtained by probe Compound 4 upon reaction with hydrogen peroxide under physiological conditions, the probe was incubated in PBS 7.4 at 37° C., in the presence and absence of hydrogen peroxide at varying concentrations, and the emitted NIR fluorescence was measured by a spectrophotometer (M2 of Molecular Device). The results, presented in FIG. 20A, indicate full conversion of probe Compound 4 to sulfo-QCy7 within 30 minutes (red plot).
The sensitivity of probe Compound 4 towards detection of hydrogen peroxide was then evaluated.

[4] = NIR fluorescence emission spectrum of dye compounds; type: physicochemical; settings: PBS 7.4 [50 μM], excitation 570 nm, cutting filter >690 nm
[5] = In vivo imaging of exogenous hydrogen peroxide (premixed probe injected); parameters: species or system mice
Experimental: Initially, as a simple control experiment, a premixed solution of probe 4 with hydrogen peroxide was injected into the peritoneal cavity, and the mice were imaged in a CRI Maestro™ non-invasive fluorescence imaging system.
Next, it was tested whether probe Compound 4 can be used to differentiate in vivo various concentrations of hydrogen peroxide in order to test the system's sensitivity. Therefore, two different concentrations of hydrogen peroxide were premixed with probe Compound 4; immediately injected intramuscularly, into the leg, and then imaged by the CRI Maestro™ non-invasive fluorescence imaging system.

[6] = test system: endogenously produced hydrogen peroxide; assay: In vivo imaging of endogenous hydrogen peroxide, LPS-induced acute inflammation; parameters: species or system Balb/c mice
Experimental: To induce acute inflammation in Balb/c mice, 1 ml (0.1 mg/ml) of LPS (Lipopolysaccharides from Escherichia coli 055:B5, Sigma) was injected into the peritoneal cavity of Balb/c mice as previously described [Lee, D. et al. Nat. Mater. 6, 765-769 (2007)]. Six hours later, additional i.p. injections of 400 μl of 1 mM of the tested probe compound or PBS (as control) were performed. Second control group of mice was injected i.p. with 1 ml of PBS followed by additional i.p. injection of 400 μl PBS. Fifteen minutes later, mice were anesthetized using ketamine (100 mg/kg) and xylazine (12 mg/kg), treated with a depilatory cream (Veet®), and placed inside CRI Maestro non-invasive fluorescence imaging system. Multispectral image-cubes were acquired through 600-800 nm spectral range in 10 nm steps using excitation (595 nm) and emission (635 nm longpass) filter set. Mice autofluorescence and undesired background signals were eliminated by spectral analysis and linear unmixing algorithm. Activated probe-fluorescence unmixed specific signal was quantified as total signal of photons/exposure time (sec). Data is expressed as mean±s.d.
The, the use of probe Compound 4 for visualizing endogenously-produced hydrogen peroxide was tested. […] Mater. 6, 765-9 (2007)]. Mice were injected intraperitoneally (i.p.) with LPS (1 ml of 0.1 mg/ml), followed 6 hours later by additional i.p. injection of probe Compound 4 (400 μl of 1 mM) and were thereafter imaged by the CRI Maestro™ non-invasive fluorescence imaging system.

[7] = UV-Vis absorption spectrum of dye compounds; type: physicochemical; settings: for λmax: Table 1, first λmax column (absorption peaks)
Excerpt: as §3
Compound 14 is composed from a phenol latent donor and two different acceptors; a picolinium moiety and an indolium moiety (see, Scheme 3). Deprotonation of the phenolic dye leads to formation of new donor-acceptor pair fluorochrome.
Compound 18 is composed of a phenol latent donor and two identical acceptors based on a picolinium moiety (see, Scheme 4). Deprotonation of the phenolic form leads to formation of new donor-acceptor pair fluorochrome.
Compound 25 is composed of a phenol latent donor and three acceptors; two picolinium moieties and one indolium moiety (see, Scheme 5). Deprotonation of the phenolic compound leads to formation of three resonance donor-two-acceptor structures of new fluorochrome.
The chemical 2D structures and spectroscopic data obtained for exemplary dye molecules according to embodiments of the present invention are presented in Table 1.

[8] = pKa measurement by UV-Vis absorbance as a function of pH; type: physicochemical; settings: buffers at the indicated pH; 50 μM in buffers, phenol form
Experimental: The pKa values of exemplary compounds according to some embodiments of the present invention, Compounds 14, 18 and 25, was measured by monitoring their UV-Vis absorbance as a function of the environment pH. The tested compounds, at a concentration of 50 μM were dissolved in the respective buffers at the indicated pH and their absorbance was measured.

[9] = Aqueous stability in PBS 7.4 at 37° C., NIR emission over 72 hours; type: physicochemical; settings: PBS 7.4 [25 μM]
Experimental: The aqueous stability of the cyanine-like dye compound presented herein was tested and compared to that of the cyanine molecule Cy7.
All tested compounds were incubated in PBS 7.4 [25 μM], at 37° C., and their NIR fluorescent emission was monitored over 72 hours. FIG. 15 presents the normalized intensity of NIR fluorescent emission of dyes generated from Compound 9 (green circles; Sulfo-QCy7), Compound 14 (blue diamonds), Compound 18 (red squares), Compound 25 (orange triangles) and Compound 1 (blank navy squares; QCy7) as a function of incubation time.

Row | SMILES | quantum yield [1] [%] | λmax [2] | other results
1 | C[n+]1ccc(/C=C/c2cc(C(=O)O)cc(/C=C/c3cc[n+](C)cc3)c2O)cc1 [Compound 29] | 2 | 700 nm | 
2 | CC1(C)C(/C=C/c2cc(/C=C/C3=[N+](CCCS(=O)(=O)[O-])c4ccccc4C3(C)C)c(O)c(/C=C/C3=[N+](CCCS(=O)(=O)[O-])c4ccccc4C3(C)C)c2)=[N+](CCCS(=O)(=O)[O-])c2ccccc21 [Compound 30] | 16 | 710 nm | 
3 | CC1(C)C(/C=C/c2ccc(OCc3ccc(B(O)O)cc3)c(/C=C/C3=[N+](CCCS(=O)(=O)[O-])c4ccccc4C3(C)C)c2)=[N+](CCCS(=O)(=O)[O-])c2ccccc21 [Compound 4] |  |  | NIR fluorescence in the absence of hydrogen peroxide ([3]; PBS 7.4, 37° C.): No NIR fluorescence is observed; time to full conversion of probe to sulfo-QCy7 ([3]; probe [50 μM], hydrogen peroxide [50 μM], PBS 7.4, 37° C.): ≤ 30 min; detectable hydrogen peroxide concentration ([3]; probe [100 μM]): below 1 μM; appearance under NIR imaging camera [4]: clearly transparent; NIR fluorescence in vivo, probe premixed with hydrogen peroxide ([5]; injected into the peritoneal cavity): can generate NIR fluorescence in vivo image; NIR fluorescence in vivo, probe only ([5]; injected into the peritoneal cavity, no hydrogen peroxide): did not show any detectable NIR fluorescence; dependence of NIR fluorescence intensity on hydrogen peroxide concentration in vivo ([5]; premixed, injected intramuscularly into the leg): dependent on the hydrogen peroxide initial concentration; signal-to-noise ratio of NIR fluorescence intensity vs control group ([6]; LPS i.p., probe 400 μl of 1 mM i.p. 6 hours later): about 10 fold; NIR fluorescence signal, LPS-treated vs non-LPS treated mice ([6]; LPS i.p., probe i.p. 6 hours later): significantly greater intensity of NIR fluorescence signal; NIR fluorescence in mice treated only with probe ([6]; no LPS): slight NIR fluorescence
4 | C[n+]1ccc(/C=C/c2cc(C=O)cc(/C=C/c3cc[n+](C)cc3)c2O)cc1 [Compound 22] | 7 | 650 nm | 
5 | CCOC(=O)c1cc(/C=C/c2cc[n+](C)c3ccccc23)c(O)c(/C=C/c2cc[n+](C)c3ccccc23)c1 [Compound 20] |  | No fluores- cence | 
6 | C[n+]1ccc(/C=C/c2ccc(O)c(/C=C/c3cc[n+](C)c4ccccc34)c2)c2ccccc21.[I-].[I-] [Compound 13] |  | No fluores- cence | λmax [7]: 550 nm
7 | CC(C)(C)c1cc(/C=C/c2ccc(O)c(/C=C/c3cc(C(C)(C)C)[o+]c(C(C)(C)C)c3)c2)cc(C(C)(C)C)[o+]1 [Compound 15] |  | No fluores- cence | 
8 | C[n+]1ccc(/C=C/c2cc(/C=C/c3cc[n+](C)cc3)c(O)c(/C=C/c3cc[n+](C)cc3)c2)cc1.I.I [Compound 31] |  | 720 nm | 
9 | C[n+]1ccc(/C=C/c2ccc(O)c(/C=C/c3cc[n+](C)cc3C#N)c2)c(C#N)c1.[I-].[I-] [Compound 11] |  | 730 nm | 
10 | C[n+]1ccc(/C=C/c2cc([N+](=O)[O-])cc(/C=C/c3cc[n+](C)cc3)c2O)cc1 [Compound 23] |  | 600 nm | 
11 | C[n+]1ccc(/C=C/c2cc(Br)cc(/C=C/c3cc[n+](C)cc3)c2O)cc1 [Compound 27] | 2.9 | 720 nm | 
12 | C[n+]1ccc(/C=C/c2ccc(O)c(/C=C/c3cc[n+](C)cc3[N+](=O)[O-])c2)c([N+](=O)[O-])c1.[I-].[I-] [Compound 12] |  | No fluores- cence | λmax [7]: 350 nm
13 | C[n+]1ccc(/C=C/c2ccc(O)c(/C=C/c3cc[n+](C)cc3S(=O)(=O)[O-])c2)c(S(=O)(=O)[O-])c1 [Compound 17] | 2.6 | 730 nm | 
14 | CC(=O)Oc1ccc(/C=C/C2=[N+](C)c3ccccc3C2(C)C)cc1/C=C/C1=[N+](C)c2ccccc2C1(C)C [Compound 3] |  |  | fluorescence emission in the NIR region of masked derivative ([2]; PBS 7.4 [100 μM], λex=560 nm): did not show any fluorescence emission in the NIR region
15 | C[n+]1ccc(/C=C/c2cc(/C=C/c3cc(C(C)(C)C)[o+]c(C(C)(C)C)c3)ccc2O)cc1.I [Compound 16] |  | 730 nm | λmax [7]: 580 nm
16 | C[n+]1ccc(/C=C/c2ccc(O)c(/C=C/c3cc[n+](C)cc3)c2)cc1.[I-].[I-] [Compound 10] |  | 720 nm | 
17 | CCOC(=O)c1cc(/C=C/c2cc[n+](C)cc2)c(O)c(/C=C/c2cc[n+](C)cc2)c1 [Compound 19] |  | 660 nm | 
18 | CCOC(=O)c1cc(/C=C/c2cc[n+](C)cc2C#N)c(O)c(/C=C/c2cc[n+](C)cc2C#N)c1 [Compound 21] |  | 730 nm | 
19 | C[n+]1ccc(/C=C/c2cc(/C=C/C3=[N+](CCCS(=O)(=O)[O-])c4ccccc4C3(C)C)ccc2O)cc1.[I-] [Compound 14] | 17 | 650 nm | UV-Vis absorption peak maximum ([7]; PBS 7.4): 550 nm; pKa [8]: 2.9; fluorescence emission peak in the NIR region ([2]; PBS 7.4): 680 nm; aqueous stability compared with Cy7 [9]: increase aqueous stability than that of Cy7; loss of NIR fluorescence during incubation period [9]: did not show any loss of NIR fluorescence
